According to US20240150377A1, “MODULATORS OF CYSTIC FIBROSIS TRANSMEMBRANE CONDUCTANCE REGULATOR” (VERTEX PHARMACEUTICALS INCORPORATED, priority 2020, published 2024):
pEC50: −log10 of the molar value. Read-outs that look alike come from different tables or passages of the source.

Biological target: CFTR (Homo sapiens, UniProt P13569)
Assay: Membrane potential dye, Enteroid Assay A
Format: cell-based
Settings: for Ent. A Max Activity: chloride transport as % of triple combination control (Enteroid Assay A); for pEC50: human enteroid cells, 18-24 hours, acute 10 μM forskolin and 300 nM ivacaftor, read-out: Ent. A EC50
Description: Base medium (ADF+++) consisted of Advanced DMEM/Ham's F12, 2 mM Glutamax, 10 mM HEPES, […] penicillin/streptomycin.
Intestinal enteroid maintenance medium (IEMM) consisted of ADF+++, 1× B27 supplement, 1× N2 supplement, 1.25 mM N-acetyl cysteine, 10 mM Nicotinamide, 50 ng/mL hEGF, 10 nM Gastrin, 1 μg/mL hR-spondin-1, 100 ng/mL hNoggin, TGF-b type 1 inhibitor A-83-01, 100 μg/mL Primocin, 10 μM P38 MAPK inhibitor SB202190.
Bath 1 Buffer consisted of 1 mM MgCl2, 160 mM NaCl, 4.5 mM KCl, 10 mM HEPES, 10 mM Glucose, 2 mM CaCl2).
Chloride Free Buffer consisted of 1 mM Magnesium Gluconate, 2 mM Calcium Gluconate, 4.5 mM Potassium Gluconate, 160 mM Sodium Gluconate, 10 mM HEPES, 10 mM Glucose.
BathI Dye Solution consisted of Bath 1 Buffer, 0.04% Pluronic F127, 20 μM Methyl Oxonol, 30 μM CaCCinh-A01, 30 μM Chicago Sky Blue.
Chloride Free Dye Solution consisted of Chloride Free Buffer, 0.04% Pluronic F127, 20 μM Methyl Oxonol, 30 μM CaCCinh-A01, 30 μM Chicago Sky Blue.
Chloride Free Dye Stimulation Solution consisted of Chloride Free Dye Solution, 10 μM forskolin, 100 μM IBMX, and 300 nM Compound III.
Human intestinal epithelial enteroid cells were obtained from the Hubrecht Institute for Developmental Biology and Stem Cell Research, Utrecht, The Netherlands and expanded in T-Flasks as previously described (Dekkers J F, Wiegerinck C L, de Jonge H R, Bronsveld I, Janssens H M, de Winter-de Groot K M, Brandsma A M, de Jong N W M, Bijvelds M J C, Scholte B J, Nieuwenhuis E E S, van den Brink S, Clevers H, van der Ent C K, Middendorp S and M Beekman J M. A functional CFTR assay using primary cystic fibrosis intestinal organoids. Nat Med. 2013 July;19(7):939-45.).
3. Enteroid Cell Harvesting and Seeding
Cells were recovered in cell recovery solution, collected by centrifugation at 650 rpm for 5 min at 4° C., resuspended in TrypLE and incubated for 5 min at 37° C. Cells were then collected by centrifugation at 650 rpm for 5 min at 4° C. and resuspended in IEMM containing 10 μM ROCK inhibitor (RI). The cell suspension was passed through a 40 μm cell strainer and resuspended at 1×10^6 cells/mL in IEMM containing 10 μM RI. Cells were seeded at 5000 cells/well into multi-well plates and incubated for overnight at 37° C., 95% humidity and 5% CO2 prior to assay.
4. Membrane Potential Dye, Enteroid Assay A
Enteroid cells were incubated with test compound in IEMM for 18-24 hours at 37° C., 95% humidity and 5% CO2. […] Briefly, cells were washed 5 times in Bath 1 Buffer. Bath 1 Dye Solution was added, and the cells were incubated for 25 min at room temperature. Following dye incubation, cells were washed 3 times in Chloride Free Dye Solution. Chloride transport was initiated by addition of Chloride Free Dye Stimulation Solution and the fluorescence signal was read for 15 min. […] Chloride transport was then expressed as a percentage of the chloride transport following treatment with 3 μM N-[(6-amino-2-pyridyl)sulfonyl]-6-(3-fluoro-5-isobutoxy-phenyl)-2-[(4S)-2,2,4-trimethylpyrrolidin-1-yl]pyridine-3-carboxamide, 3 μM (R)-1-(2,2-difluorobenzo[d][1,3]dioxol-5-yl)-N-(1-(2,3-dihydroxypropyl)-6-fluoro-2-(1-hydroxy-2-methylpropan-2-yl)-1H-indol-5-yl)cyclopropanecarboxamide and 300 nM acute N-[2,4-bis(1,1-dimethylethyl)-5-hydroxyphenyl]-1,4-dihydro-4-oxoquinoline-3-carboxamide triple combination control (% Activity).

CFTR, sequence (P13569 with tags, fused parts or gaps DEL508-508): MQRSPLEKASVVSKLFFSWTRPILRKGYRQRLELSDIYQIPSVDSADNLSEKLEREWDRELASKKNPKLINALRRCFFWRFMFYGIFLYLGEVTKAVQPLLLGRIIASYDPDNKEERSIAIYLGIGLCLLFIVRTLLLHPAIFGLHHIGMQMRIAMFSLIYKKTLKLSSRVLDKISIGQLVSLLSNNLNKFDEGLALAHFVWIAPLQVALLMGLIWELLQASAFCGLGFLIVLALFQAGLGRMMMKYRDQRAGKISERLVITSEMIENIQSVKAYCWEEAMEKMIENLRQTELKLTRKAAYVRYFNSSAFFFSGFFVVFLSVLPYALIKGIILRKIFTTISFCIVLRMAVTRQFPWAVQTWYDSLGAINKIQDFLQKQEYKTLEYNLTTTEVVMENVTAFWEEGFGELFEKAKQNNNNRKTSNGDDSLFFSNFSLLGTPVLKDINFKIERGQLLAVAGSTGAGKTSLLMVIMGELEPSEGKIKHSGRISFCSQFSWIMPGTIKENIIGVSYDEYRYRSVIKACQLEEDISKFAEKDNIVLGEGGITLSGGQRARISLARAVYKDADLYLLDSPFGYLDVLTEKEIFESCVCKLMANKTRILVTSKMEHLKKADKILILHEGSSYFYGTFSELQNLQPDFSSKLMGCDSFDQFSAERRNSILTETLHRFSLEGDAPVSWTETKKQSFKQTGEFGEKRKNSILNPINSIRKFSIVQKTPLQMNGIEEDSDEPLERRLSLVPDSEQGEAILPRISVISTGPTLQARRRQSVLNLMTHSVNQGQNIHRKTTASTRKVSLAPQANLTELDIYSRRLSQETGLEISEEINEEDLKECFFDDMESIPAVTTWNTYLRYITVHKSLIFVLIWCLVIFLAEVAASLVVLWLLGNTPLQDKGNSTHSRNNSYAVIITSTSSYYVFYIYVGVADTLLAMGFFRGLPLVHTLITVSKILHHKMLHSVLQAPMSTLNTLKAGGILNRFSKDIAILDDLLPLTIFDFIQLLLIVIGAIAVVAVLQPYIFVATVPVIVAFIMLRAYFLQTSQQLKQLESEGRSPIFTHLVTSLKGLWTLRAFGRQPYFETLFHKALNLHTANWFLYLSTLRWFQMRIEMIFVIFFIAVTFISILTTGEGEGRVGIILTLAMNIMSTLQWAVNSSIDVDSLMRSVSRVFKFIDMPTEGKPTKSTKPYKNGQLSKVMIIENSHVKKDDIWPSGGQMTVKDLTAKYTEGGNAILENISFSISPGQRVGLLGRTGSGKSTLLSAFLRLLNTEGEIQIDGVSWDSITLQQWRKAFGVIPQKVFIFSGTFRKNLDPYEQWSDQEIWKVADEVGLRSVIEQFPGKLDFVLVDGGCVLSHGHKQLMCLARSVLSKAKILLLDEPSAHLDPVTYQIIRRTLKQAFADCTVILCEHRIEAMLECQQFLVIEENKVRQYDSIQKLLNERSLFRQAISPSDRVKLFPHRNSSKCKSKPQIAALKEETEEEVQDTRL

| Structure (SMILES) | Ent. A Max Activity (Table 7) | pEC50 (Table 7) | Ent. A Max Activity (Table 6) | pEC50 (Table 6) |
| --- | --- | --- | --- | --- |
| Cc1cccc(C)c1-c1cc2nc(n1)NS(=O)(=O)c1cccc(c1)C(=O)N(C)C[C@@H](c1cccc(C(C)(C)C)c1)O2 (single isomer, unassigned) [Compound 17, 10-(3-tert-butylphenyl)-6-(2,6-dimethylphenyl)-12-methyl-2,2-dioxo-9-oxa-2λ^6-thia-3,5,12,19-tetrazatricyclo[12.3.1.14,8]nonadeca-1(18),4(19),5,7,14,16-hexaen-13-one] | +++ (+++ is >60%) | > 6.00 |  |  |
| Cc1cccc(C)c1-c1cc2nc(n1)NS(=O)(=O)c1cccc(c1)C(=O)N(CCC1CCOCC1)[C@H](CCC1(C(F)(F)F)CC1)CO2 (single isomer, unassigned) [Compound 73, 6-(2,6-dimethylphenyl)-2,2-dioxo-12-(2-tetrahydropyran-4-ylethyl)-11-[2-[1-(trifluoromethyl)cyclopropyl]ethyl]-9-oxa-2λ^6-thia-3,5,12,19-tetrazatricyclo[12.3.1.14,8]nonadeca-1(18),4(19),5,7,14,16-hexaen-13-one] |  |  | + (+ is <30%) |  |
| Cc1cccc(C)c1-c1cc2nc(n1)NS(=O)(=O)c1cccc(c1)C(=O)N(CC(O)CO)[C@H](CC(C)C)CO2 (stereo in doubt) [Compound 39, (11R)-12-[(2S)-2,3-Dihydroxypropyl]-6-(2,6-dimethylphenyl)-11-(2-methylpropyl)-9-oxa-2λ^6-thia-3,5,12,19-tetraazatricyclo[12.3.1.14,8]nonadeca-1(17),4(19),5,7,14(18),15-hexaene-2,2,13-trione] |  |  | +++ (+++ is >60%) | > 6.00 |
| Cc1cccc(C)c1-c1cc2nc(n1)NS(=O)(=O)c1cccc(c1)C(=O)N(Cc1ccccn1)CCCO2 [Compound 5, 6-(2,6-Dimethylphenyl)-2,2-dioxo-13-(2-pyridylmethyl)-9-oxa-2λ^6-thia-3,5,13,20-tetrazatricyclo[13.3.1.14,8]icosa-1(19),4(20),5,7,15,17-hexaen-14-one] |  |  | +++ (+++ is >60%) | 5.52 to 6.00 |
| Cc1cccc(C)c1-c1cc2nc(n1)NS(=O)(=O)c1cccc(c1)C(=O)N(C)CC(c1ccc(-c3ccncc3)cc1)O2 (stereo not shown) [Compound 9, 6-(2,6-Dimethylphenyl)-12-methyl-2,2-dioxo-10-[4-(4-pyridyl)phenyl]-9-oxa-2λ^6-thia-3,5,12,19-tetrazatricyclo[12.3.1.14,8]nonadeca-1(18),4(19),5,7,14,16-hexaen-13-one] |  |  | ++ (++ is 30-60%) | > 6.00 |
| Cc1cccc(C)c1-c1cc2nc(n1)NS(=O)(=O)c1cccc(c1)C(=O)N(C)C(c1ccc(C(C)(C)C)cc1)CO2 (stereo not shown) [Compound 13, 11-(4-tert-butylphenyl)-6-(2,6-dimethylphenyl)-12-methyl-2,2-dioxo-9-oxa-2λ^6-thia-3,5,12,19-tetrazatricyclo[12.3.1.14,8]nonadeca-1(18),4(19),5,7,14,16-hexaen-13-one] | ++ (++ is 30-60%) | > 6.00 |  |  |
| Cc1cccc(C)c1-c1cc2nc(n1)NS(=O)(=O)c1cccc(c1)C(=O)N(C[C@@H](O)CO)[C@H](CC(C)C)CO2 [Compound 38, (11R)-12-[(2R)-2,3-Dihydroxypropyl]-6-(2,6-dimethylphenyl)-11-(2-methylpropyl)-9-oxa-2λ^6-thia-3,5,12,19-tetraazatricyclo[12.3.1.14,8]nonadeca-1(17),4(19),5,7,14(18),15-hexaene-2,2,13-trione] |  |  | +++ (+++ is >60%) | > 6.00 |
| Cc1cccc(C)c1-c1cc2nc(n1)NS(=O)(=O)c1cccc(c1)C(=O)N(Cc1cc3n(n1)CCNC3=O)[C@H](CC(C)C)CO2 [Compound 41, (11R)-6-(2,6-dimethylphenyl)-11-isobutyl-2,2-dioxo-12-[(4-oxo-6,7-dihydro-5H-pyrazolo[1,5-a]pyrazin-2-yl)methyl]-9-oxa-2λ^6-thia-3,5,12,19-tetrazatricyclo[12.3.1.14,8]nonadeca-1(18),4(19),5,7,14,16-hexaen-13-one] |  |  | +++ (+++ is >60%) | > 6.00 |
| Cc1cccc(C)c1-c1cc2nc(n1)NS(=O)(=O)c1cccc(c1)C(=O)N(Cc1ccccc1)C(C(=O)NC(C)(C)C)CO2 (stereo not shown) [Compound 44, 12-benzyl-N-tert-butyl-6-(2,6-dimethylphenyl)-2,2,13-trioxo-9-oxa-2λ^6-thia-3,5,12,19-tetrazatricyclo[12.3.1.14,8]nonadeca-1(18),4(19),5,7,14,16-hexaene-11-carboxamide] |  |  | ++ (++ is 30-60%) | 4.52 to 5.52 |
| Cc1cccc(C)c1-c1cc2nc(n1)NS(=O)(=O)c1cccc(c1)CN(C(=O)CC1CCOCC1)[C@H](CC(C)C)CO2 [Compound 45, (11R)-6-(2,6-Dimethylphenyl)-11-(2-methylpropyl)-12-[2-(oxan-4-yl)acetyl]-9-oxa-2λ^6-thia-3,5,12,19-tetraazatricyclo[12.3.1.14,8]nonadeca-1(17),4,6,8(19),14(18),15-hexaene-2,2-dione] | + (+ is <30%) |  |  |  |
| Cc1cccc(C)c1-c1cc2nc(n1)NS(=O)(=O)c1cccc(c1)C(=O)N(CCOCc1ccccc1)[C@H](CC(C)C)CO2 [Compound 81, (11R)-12-[2-(Benzyloxy)ethyl]-6-(2,6-dimethylphenyl)-11-(2-methylpropyl)-9-oxa-2λ^6-thia-3,5,12,19-tetraazatricyclo[12.3.1.14,8]nonadeca-1(17),4,6,8(19),14(18),15-hexaene-2,2,13-trione] |  |  | +++ (+++ is >60%) | > 6.00 |
| COc1ccnc(CN2C(=O)c3cccc(c3)S(=O)(=O)Nc3nc(cc(-c4c(C)cccc4C)n3)OC[C@H]2CC(C)C)c1 [Compound 82, (11R)-6-(2,6-Dimethylphenyl)-11-isobutyl-12-[(4-methoxy-2-pyridyl)methyl]-2,2-dioxo-9-oxa-2λ^6-thia-3,5,12,19-tetrazatricyclo[12.3.1.14,8]nonadeca-1(18),4(19),5,7,14,16-hexaen-13-one] |  |  | +++ (+++ is >60%) | > 6.00 |
| Cc1cccc(C)c1-c1cc2nc(n1)NS(=O)(=O)c1cccc(c1)C(=O)N(Cc1ccc(C3=CCN(C)CC3)cc1)[C@H](CC(C)C)CO2 [Compound 86, (11R)-6-(2,6-Dimethylphenyl)-11-isobutyl-12-[[4-(1-methyl-3,6-dihydro-2H-pyridin-4-yl)phenyl]methyl]-2,2-dioxo-9-oxa-2λ^6-thia-3,5,12,19-tetrazatricyclo[12.3.1.14,8]nonadeca-1(18),4(19),5,7,14,16-hexaen-13-one] |  |  | +++ (+++ is >60%) | > 6.00 |
| Cc1cccc(C)c1-c1cc2nc(n1)NS(=O)(=O)c1cccc(c1)C(=O)N(Cc1ccc(C3CCN(C)CC3)cc1)[C@H](CC(C)C)CO2 [Compound 87, (11R)-6-(2,6-Dimethylphenyl)-11-isobutyl-12-[[4-(1-methyl-4-piperidyl)phenyl]methyl]-2,2-dioxo-9-oxa-2λ^6-thia-3,5,12,19-tetrazatricyclo[12.3.1.14,8]nonadeca-1(18),4(19),5,7,14,16-hexaen-13-one] |  |  | +++ (+++ is >60%) | > 6.00 |
| Cc1cccc(C)c1-c1cc2nc(n1)NS(=O)(=O)c1cccc(c1)C(=O)N(Cc1ccc(P(C)(C)=O)cc1)[C@H](CC(C)C)CO2 [Compound 88, (11R)-6-(2,6-Dimethylphenyl)-12-[(4-dimethylphosphorylphenyl)methyl]-11-isobutyl-2,2-dioxo-9-oxa-2λ^6-thia-3,5,12,19-tetrazatricyclo[12.3.1.14,8]nonadeca-1(18),4(19),5,7,14,16-hexaen-13-one] |  |  | ++ (++ is 30-60%) | 5.52 to 6.00 |
